Laboratory results published in patent US10954269B2, “Anti-inflammatory tripeptides” (Dr. August Wolff Gmbh & Co. KG Arzneimittel, priority 2013, dated 2021).
[ ]: non-standard residue; d: D form. Aib = CC(C)(N)C(=O)O

Tests used:
[1] = system: primary human T-cells; assay: Cytokine secretion on protein level in activated primary human T-cells (13-plex FACS / Luminex, supernatant); type: cell-based; conditions: 10^−9M
Protocol: (§1) Primary T-cells were isolated from peripheral blood from healthy volunteers and from secondary lymphatic organs from naïve C57BL/6 mice, respectively. The cells were stimulated with phorbol-12-myristate-13-acetate (PMA)/Ionomycin and interferon-gamma (IFN-γ), respectively, for 48 h to activate the cells. The activated cells release pro-inflammatory cytokines. In parallel a human (HaCaT) keratinocyte cell line was activated with PMA/Ionomycin and IFN-γ, respectively, too. […] At the same time release of anti-inflammatory IL-10 was inhibited. Two days after addition of PMA/Ionomycin and IFN-γ, respectively, the induction of IL-1 secretion was determined in the supernatant for proving that the cells are activated. […] The anti-inflammatory properties of the tripeptides were determined 48 h and 72 h following stimulation. A 13-plex-system based FACS analysis was used for showing the reduced secretion of pro-inflammatory cytokines in the supernatant. Data for IL-1, IL-2, IL-6, IL-12p70 IL-17, IFN-γ and TNF-α are considered to be most relevant. Thus, analysis of the anti-inflammatory properties of the tripeptides is preferably based on the results obtained for these analytes. […] Using this method the gene expression of pro-inflammatory markers like IL-6, IL-17, IFN-γ and TNF-α was determined.
(§2) In a third experiment murine and human T cells and HaCaT cells were stimulated with PMA/Ionomycin and treated with Examples 14, 15, 16 and 17 at 10^−7 M, 10^−9 M and 10^−11 M. Cytokine concentrations (IFN-γ, IL-17 and IL-10 for T cells and IFN-γ for HaCat) were assessed in the supernatants using the Luminex technology. Expression of genes coding for Il-1β, IL-6 and TNF-α was determined. […] Moreover, concentrations of pro-inflammatory cytokines IFN-γ and IL-17 was reduced in the supernatants whereas the concentration of anti-inflammatory cytokine IL-10 was increased. […]
(§3) For the biological assay two human cell lines of different origin were chosen to allow for translation of the results obtained. A HaCaT cell is a cell type belonging to an immortal human keratinocyte line used in scientific research. Its use in research allows for the characterization of human keratinocyte using a model that is reproducible and representing a human epithelial cell line. In contrast human T-lymphocytes (T-cells) are a type of lymphocyte (itself a type of white blood cell) that play a central role in cell-mediated inflammation/immunity.

[2] = system: human keratinocyte cell line (HaCaT); assay: Cytokine secretion on protein level in activated human keratinocyte cell line HaCaT (13-plex FACS / Luminex, supernatant); type: cell-based; conditions: for IL-1 cytokine concentration / IL-2 cytokine concentration / IL-4 cytokine concentration / IL-5 cytokine concentration / IL-6 cytokine concentration / IL-9 cytokine concentration / IL-10 cytokine concentration / IL-13 cytokine concentration / IL-17 cytokine concentration / TNF-α cytokine concentration / IL-12p70 cytokine concentration / IL-22 cytokine concentration / IFN-γ cytokine concentration: 10^−9M; for IL-12p70 cytokine concentration / IL-22 cytokine concentration: excluded from the final assessment
Protocol: as §1, §2, §3

[3] = system: primary murine T-cells; assay: Cytokine secretion on protein level in activated primary murine T-cells (13-plex FACS / Luminex, supernatant); type: cell-based, C57BL/6 mice; conditions: 10^−9M
Protocol: as §1
In a third experiment murine and human T cells and HaCaT cells were stimulated with PMA/Ionomycin and treated with Examples 14, 15, 16 and 17 at 10^−7 M, 10^−9 M and 10^−11 M. Cytokine concentrations (IFN-γ, IL-17 and IL-10 for T cells and IFN-γ for HaCat) were assessed in the supernatants using the Luminex technology. Expression of genes coding for Il-1β, IL-6 and TNF-α was determined. […] Moreover, concentrations of pro-inflammatory cytokines IFN-γ and IL-17 was reduced in the supernatants whereas the concentration of anti-inflammatory cytokine IL-10 was increased.
The anti-inflammatory and immunomodulatory effects of selected examples of the present invention were compared with common immunosuppressants. Thus, cells activated with PMA/Ionomycin and IFN-γ, respectively, were stimulated with MMF or dexamethasone. Following stimulation the secretion of pro-inflammatory cytokines was analyzed on protein and gene level (Table 9 and FIGS. 4-6).

[4] = primary human T-cells stimulated with IFN-γ
[5] = primary human T-cells stimulated with PBS
[6] = primary human T-cells stimulated with PMA/Ionomycin
[7] = HaCaT stimulated with PMA/Ionomycin
[8] = primary murine T-cells stimulated with IFN-γ
[9] = primary murine T-cells stimulated with PBS
[10] = primary murine T-cells stimulated with PMA/Ionomycin
[11] = primary murine T-cells stimulated with PMA/Ionomycin, 1:10 dilution of the supernatants

H-Lys-[dP]-[Aib]-OH [Example 1]
IL-1 cytokine concentration [1, 4]: 296.42 pg/mL
IL-2 cytokine concentration [1, 4]: 515.89 pg/mL
IL-4 cytokine concentration [1, 4]: 180.24 pg/mL
IL-5 cytokine concentration [1, 4]: 112.65 pg/mL
IL-6 cytokine concentration [1, 4]: 131.33 pg/mL
IL-9 cytokine concentration [1, 4]: 111.14 pg/mL
IL-10 cytokine concentration [1, 4]: 164.32 pg/mL
IL-12p70 cytokine concentration [1, 4]: 945.16 pg/mL
IL-13 cytokine concentration [1, 4]: 82.57 pg/mL
IL-17 cytokine concentration [1, 4]: 234.65 pg/mL
IL-22 cytokine concentration [1, 4]: 21389.5 pg/mL
TNF-α cytokine concentration [1, 4]: 230.57 pg/mL
IFN-γ cytokine concentration [1, 5]: 634.2 pg/mL
IL-1 cytokine concentration [1, 5]: 398.01 pg/mL
IL-2 cytokine concentration [1, 5]: 545.22 pg/mL
IL-4 cytokine concentration [1, 5]: 198.06 pg/mL
IL-5 cytokine concentration [1, 5]: 275.55 pg/mL
IL-6 cytokine concentration [1, 5]: 85.95 pg/mL
IL-9 cytokine concentration [1, 5]: 131.69 pg/mL
IL-10 cytokine concentration [1, 5]: 107.07 pg/mL
IL-12p70 cytokine concentration [1, 5]: 223.67 pg/mL
IL-13 cytokine concentration [1, 5]: 77.6 pg/mL
IL-17 cytokine concentration [1, 5]: 295.13 pg/mL
IL-22 cytokine concentration [1, 5]: 2227.62 pg/mL
TNF-α cytokine concentration [1, 5]: 203.95 pg/mL
IFN-γ cytokine concentration [1, 6]: 2516.08 pg/mL
IL-1 cytokine concentration [1, 6]: 11244.1 pg/mL
IL-2 cytokine concentration [1, 6]: 12000 pg/mL
IL-4 cytokine concentration [1, 6]: 209.61 pg/mL
IL-5 cytokine concentration [1, 6]: 204.84 pg/mL
IL-6 cytokine concentration [1, 6]: 1868.8 pg/mL
IL-9 cytokine concentration [1, 6]: 159.86 pg/mL
IL-10 cytokine concentration [1, 6]: 3032.66 pg/mL
IL-12p70 cytokine concentration [1, 6]: 925.71 pg/mL
IL-13 cytokine concentration [1, 6]: 398.98 pg/mL
IL-17 cytokine concentration [1, 6]: 2443.34 pg/mL
IL-22 cytokine concentration [1, 6]: 24324.9 pg/mL
TNF-α cytokine concentration [1, 6]: 3600 pg/mL
IL-1 cytokine concentration ([2]; HaCaT stimulated with IFN-γ): 251.36 pg/mL
IL-2 cytokine concentration ([2]; HaCaT stimulated with IFN-γ): 95.81 pg/mL
IL-4 cytokine concentration ([2]; HaCaT stimulated with IFN-γ): 88.93 pg/mL
IL-5 cytokine concentration ([2]; HaCaT stimulated with IFN-γ): 156.74 pg/mL
IL-6 cytokine concentration ([2]; HaCaT stimulated with IFN-γ): 704.01 pg/mL
IL-9 cytokine concentration ([2]; HaCaT stimulated with IFN-γ): 96.1 pg/mL
IL-10 cytokine concentration ([2]; HaCaT stimulated with IFN-γ): 107.72 pg/mL
IL-13 cytokine concentration ([2]; HaCaT stimulated with IFN-γ): 57.99 pg/mL
IL-17 cytokine concentration ([2]; HaCaT stimulated with IFN-γ): 612.41 pg/mL
TNF-α cytokine concentration ([2]; HaCaT stimulated with IFN-γ): 101.29 pg/mL
IL-12p70 cytokine concentration ([2]; HaCaT stimulated with IFN-γ): 1872.11 pg/mL
IL-22 cytokine concentration ([2]; HaCaT stimulated with IFN-γ): 18014.5 pg/mL
IFN-γ cytokine concentration ([2]; HaCaT stimulated with PBS): 373.53 pg/mL
IL-1 cytokine concentration ([2]; HaCaT stimulated with PBS): 224.9 pg/mL
IL-2 cytokine concentration ([2]; HaCaT stimulated with PBS): 87.98 pg/mL
IL-4 cytokine concentration ([2]; HaCaT stimulated with PBS): 85.92 pg/mL
IL-5 cytokine concentration ([2]; HaCaT stimulated with PBS): 181.61 pg/mL
IL-6 cytokine concentration ([2]; HaCaT stimulated with PBS): 77.53 pg/mL
IL-9 cytokine concentration ([2]; HaCaT stimulated with PBS): 112.82 pg/mL
IL-10 cytokine concentration ([2]; HaCaT stimulated with PBS): 166.47 pg/mL
IL-13 cytokine concentration ([2]; HaCaT stimulated with PBS): 64.17 pg/mL
IL-17 cytokine concentration ([2]; HaCaT stimulated with PBS): 562.61 pg/mL
TNF-α cytokine concentration ([2]; HaCaT stimulated with PBS): 87.84 pg/mL
IL-12p70 cytokine concentration ([2]; HaCaT stimulated with PBS): 1881.61 pg/mL
IL-22 cytokine concentration ([2]; HaCaT stimulated with PBS): 18087.5 pg/mL
IFN-γ cytokine concentration [2, 7]: 531 pg/mL
IL-1 cytokine concentration [2, 7]: 118.79 pg/mL
IL-2 cytokine concentration [2, 7]: 184.58 pg/mL
IL-4 cytokine concentration [2, 7]: 78.12 pg/mL
IL-5 cytokine concentration [2, 7]: 141.02 pg/mL
IL-6 cytokine concentration [2, 7]: 131.98 pg/mL
IL-9 cytokine concentration [2, 7]: 108.97 pg/mL
IL-10 cytokine concentration [2, 7]: 48.13 pg/mL
IL-13 cytokine concentration [2, 7]: 49.03 pg/mL
IL-17 cytokine concentration [2, 7]: 449.68 pg/mL
TNF-α cytokine concentration [2, 7]: 77.12 pg/mL
IL-12p70 cytokine concentration [2, 7]: 0 pg/mL
IL-22 cytokine concentration [2, 7]: 8956.12 pg/mL
secretion / expression of pro-inflammatory cytokines (supernatant) ([2]; activated human keratinocytes): decreased secretion
IL-1 cytokine concentration [3, 8]: 0 pg/mL
IL-2 cytokine concentration [3, 8]: 0 pg/mL
IL-4 cytokine concentration [3, 8]: 0 pg/mL
IL-5 cytokine concentration [3, 8]: 0 pg/mL
IL-6 cytokine concentration [3, 8]: 6.51 pg/mL
IL-10 cytokine concentration [3, 8]: 0 pg/mL
IL-13 cytokine concentration [3, 8]: 0 pg/mL
IL-17 cytokine concentration [3, 8]: 10.81 pg/mL
IL-21 cytokine concentration [3, 8]: 0 pg/mL
IL-22 cytokine concentration [3, 8]: 0 pg/mL
IL-27 cytokine concentration [3, 8]: 179.72 pg/mL
TNF-α cytokine concentration [3, 8]: 0 pg/mL
IFN-γ cytokine concentration [3, 9]: 0 pg/mL
IL-1 cytokine concentration [3, 9]: 53.09 pg/mL
IL-2 cytokine concentration [3, 9]: 0 pg/mL
IL-4 cytokine concentration [3, 9]: 0 pg/mL
IL-5 cytokine concentration [3, 9]: 0 pg/mL
IL-6 cytokine concentration [3, 9]: 0 pg/mL
IL-10 cytokine concentration [3, 9]: 110.76 pg/mL
IL-13 cytokine concentration [3, 9]: 0 pg/mL
IL-17 cytokine concentration [3, 9]: 0 pg/mL
IL-21 cytokine concentration [3, 9]: 0 pg/mL
IL-22 cytokine concentration [3, 9]: 0 pg/mL
IL-27 cytokine concentration [3, 9]: 379.78 pg/mL
TNF-α cytokine concentration [3, 9]: 0 pg/mL
IL-1 cytokine concentration [3, 10]: 60.61 pg/mL
IL-4 cytokine concentration [3, 10]: 0 pg/mL
IL-5 cytokine concentration [3, 10]: 292.17 pg/mL
IL-6 cytokine concentration [3, 10]: 239.47 pg/mL
IL-10 cytokine concentration [3, 10]: 145.26 pg/mL
IL-13 cytokine concentration [3, 10]: 3898.42 pg/mL
IL-17 cytokine concentration [3, 10]: 459.99 pg/mL
IL-21 cytokine concentration [3, 10]: 0 pg/mL
IL-22 cytokine concentration [3, 10]: 526.42 pg/mL
IL-27 cytokine concentration [3, 10]: 426.79 pg/mL
TNF-α cytokine concentration [3, 10]: 535.51 pg/mL
IFN-γ* cytokine concentration [3, 11]: 0 pg/mL
IL-2* cytokine concentration [3, 11]: 1354.76 pg/mL
